ChEMBL document CHEMBL1201862, “PubChem BioAssay data set” (2004)
The source made the active and inactive calls.

Key:
[1] = target: ALK tyrosine kinase receptor (Homo sapiens, UniProt Q9UM73); type: functional;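 also: ALK tested as one member of a kinase panel screen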
Aurora kinase A = Aurora kinase A (Homo sapiens, UniProt O14965); type: functional;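 also: value from the Navigating the Kinome kinase panel profiling, panel entry STK6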
Focal adhesion kinase 1 = Focal adhesion kinase 1 (Homo sapiens, UniProt Q05397); type: functional;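 also: measured as one member of a kinome panel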
Sequence of Focal adhesion kinase 1 (Q05397 whole entry): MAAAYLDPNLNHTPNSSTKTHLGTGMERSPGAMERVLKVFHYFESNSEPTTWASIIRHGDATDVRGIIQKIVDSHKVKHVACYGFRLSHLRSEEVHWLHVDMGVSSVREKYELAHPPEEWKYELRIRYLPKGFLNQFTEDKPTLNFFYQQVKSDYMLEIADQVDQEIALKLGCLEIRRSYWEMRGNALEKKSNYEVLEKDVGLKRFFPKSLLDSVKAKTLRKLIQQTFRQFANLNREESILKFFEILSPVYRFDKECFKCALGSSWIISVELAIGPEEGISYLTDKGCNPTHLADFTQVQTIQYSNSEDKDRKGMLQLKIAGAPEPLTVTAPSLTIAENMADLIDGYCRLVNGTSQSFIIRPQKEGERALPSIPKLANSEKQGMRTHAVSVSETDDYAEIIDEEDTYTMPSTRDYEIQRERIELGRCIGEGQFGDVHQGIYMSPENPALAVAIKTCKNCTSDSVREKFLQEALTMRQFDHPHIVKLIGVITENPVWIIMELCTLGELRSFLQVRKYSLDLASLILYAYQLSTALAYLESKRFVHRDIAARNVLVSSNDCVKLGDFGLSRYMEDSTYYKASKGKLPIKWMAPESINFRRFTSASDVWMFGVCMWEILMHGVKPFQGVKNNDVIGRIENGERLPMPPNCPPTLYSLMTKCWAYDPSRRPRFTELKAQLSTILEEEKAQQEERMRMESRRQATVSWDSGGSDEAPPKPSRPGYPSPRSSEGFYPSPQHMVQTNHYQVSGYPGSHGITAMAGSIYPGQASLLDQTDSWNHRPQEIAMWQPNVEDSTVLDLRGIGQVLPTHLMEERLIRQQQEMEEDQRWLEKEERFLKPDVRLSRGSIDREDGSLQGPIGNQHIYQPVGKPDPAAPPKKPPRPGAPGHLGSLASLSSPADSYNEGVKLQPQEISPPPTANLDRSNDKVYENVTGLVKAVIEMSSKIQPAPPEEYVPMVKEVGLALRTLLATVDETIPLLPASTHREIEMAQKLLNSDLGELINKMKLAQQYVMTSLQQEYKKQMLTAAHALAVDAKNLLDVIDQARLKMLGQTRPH

Aurora kinase B = Aurora kinase B (Homo sapiens, UniProt Q96GD4); type: functional
Sequence of Aurora kinase B (Q96GD4 whole entry): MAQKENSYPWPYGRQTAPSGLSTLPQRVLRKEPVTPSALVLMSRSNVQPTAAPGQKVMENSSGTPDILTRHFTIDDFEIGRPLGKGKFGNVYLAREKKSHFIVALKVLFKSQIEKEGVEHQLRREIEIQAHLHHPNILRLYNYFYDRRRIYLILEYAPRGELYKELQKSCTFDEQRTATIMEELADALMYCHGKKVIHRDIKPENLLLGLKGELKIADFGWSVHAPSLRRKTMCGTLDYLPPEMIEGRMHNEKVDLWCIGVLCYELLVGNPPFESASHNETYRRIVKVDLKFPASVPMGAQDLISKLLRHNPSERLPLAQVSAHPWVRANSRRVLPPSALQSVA

[2] = target: Latent membrane protein 1 (Human herpesvirus 4 (strain B95-8), UniProt P03230); assay: LMP1 TES1 pathway selectivity over dsRED control – imaging, HEK293T, dual-color eGFP/dsRED, cherry-picks, selectivity assay for LMP1 NF-kB inhibitor project, dose response (AID 588398); type: functional, cell-based
[3] = target: Disintegrin and metalloproteinase domain-containing protein 17 (Homo sapiens, UniProt P78536); assay: exosite inhibitors of ADAM17, dose response, biochemical (AID 743260)
[4] = inhibition of ADAM10 peptide cleavage – biochemical, FRET peptide substrate, recombinant human ADAM10, selectivity assay for ADAM17 exosite inhibitor project, dose response (AID 743259);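 also: ADAM10 enzyme cleaving a FRET peptide substrate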
[5] = luciferase reporter signal suppression in cells – H4 neuroglioma cells, luminescence, dose response (AID 1990); type: functional, cell-based
[6] = Luminescence Cell-Based Dose Response HTS to Identify Inhibitors of 5'UTR Stem-Loop Driven Prion Protein mRNA Translation in H4 Neuroglioblastoma Cells. [Related pubchem assays: 1827 (Project Summary), 1813 (Primary HTS)]; type: functional
[7] = alpha-synuclein stem-loop luciferase translation blockers – H4 neuroglioma cells, luminescence, confirmation (AID 1988); type: functional, cell-based
[8] = target: T1, Replicative DNA helicase DnaB (Mycobacterium tuberculosis, UniProt P9WMR3); assay: DnaB intein splicing inhibitors, dose response, biochemical, cell-free fluorescence (AID 449749); type: functional
T1 sequence (P9WMR3 whole entry): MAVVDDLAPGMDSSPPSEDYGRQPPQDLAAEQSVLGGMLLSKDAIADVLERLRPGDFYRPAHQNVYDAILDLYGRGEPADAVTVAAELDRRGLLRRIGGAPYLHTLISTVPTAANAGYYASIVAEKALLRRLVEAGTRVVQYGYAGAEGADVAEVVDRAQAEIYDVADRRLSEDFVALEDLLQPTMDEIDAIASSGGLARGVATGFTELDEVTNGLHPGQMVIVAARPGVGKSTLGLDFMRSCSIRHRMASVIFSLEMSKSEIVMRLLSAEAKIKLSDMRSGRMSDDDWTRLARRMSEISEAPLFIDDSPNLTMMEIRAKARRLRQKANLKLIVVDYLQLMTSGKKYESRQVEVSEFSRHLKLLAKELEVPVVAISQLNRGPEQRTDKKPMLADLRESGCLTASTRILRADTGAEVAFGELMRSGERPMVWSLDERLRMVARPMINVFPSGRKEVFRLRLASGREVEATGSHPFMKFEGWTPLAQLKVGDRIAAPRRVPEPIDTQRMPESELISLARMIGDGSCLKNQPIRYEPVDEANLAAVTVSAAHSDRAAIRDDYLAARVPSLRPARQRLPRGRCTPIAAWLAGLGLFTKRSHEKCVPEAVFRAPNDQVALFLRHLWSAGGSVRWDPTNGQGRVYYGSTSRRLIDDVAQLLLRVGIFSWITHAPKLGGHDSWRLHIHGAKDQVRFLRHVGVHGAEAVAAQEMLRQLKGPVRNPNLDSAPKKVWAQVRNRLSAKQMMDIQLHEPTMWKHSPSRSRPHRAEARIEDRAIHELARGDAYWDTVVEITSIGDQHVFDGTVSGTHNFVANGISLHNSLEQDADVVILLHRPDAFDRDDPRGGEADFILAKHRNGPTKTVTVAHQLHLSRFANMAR

Protein RecA = target: T2, Protein RecA (Mycobacterium tuberculosis, UniProt P9WHJ3); assay: Fluorescence Cell-Free Homogeneous Dose Retest to Identify Inhibitors of RecA-Intein Splicing Activity. [Related pubchem assays (depositor defined):AID2097, AID2223, AID489010, AID492950]; type: functional
T2 sequence (P9WHJ3 whole entry): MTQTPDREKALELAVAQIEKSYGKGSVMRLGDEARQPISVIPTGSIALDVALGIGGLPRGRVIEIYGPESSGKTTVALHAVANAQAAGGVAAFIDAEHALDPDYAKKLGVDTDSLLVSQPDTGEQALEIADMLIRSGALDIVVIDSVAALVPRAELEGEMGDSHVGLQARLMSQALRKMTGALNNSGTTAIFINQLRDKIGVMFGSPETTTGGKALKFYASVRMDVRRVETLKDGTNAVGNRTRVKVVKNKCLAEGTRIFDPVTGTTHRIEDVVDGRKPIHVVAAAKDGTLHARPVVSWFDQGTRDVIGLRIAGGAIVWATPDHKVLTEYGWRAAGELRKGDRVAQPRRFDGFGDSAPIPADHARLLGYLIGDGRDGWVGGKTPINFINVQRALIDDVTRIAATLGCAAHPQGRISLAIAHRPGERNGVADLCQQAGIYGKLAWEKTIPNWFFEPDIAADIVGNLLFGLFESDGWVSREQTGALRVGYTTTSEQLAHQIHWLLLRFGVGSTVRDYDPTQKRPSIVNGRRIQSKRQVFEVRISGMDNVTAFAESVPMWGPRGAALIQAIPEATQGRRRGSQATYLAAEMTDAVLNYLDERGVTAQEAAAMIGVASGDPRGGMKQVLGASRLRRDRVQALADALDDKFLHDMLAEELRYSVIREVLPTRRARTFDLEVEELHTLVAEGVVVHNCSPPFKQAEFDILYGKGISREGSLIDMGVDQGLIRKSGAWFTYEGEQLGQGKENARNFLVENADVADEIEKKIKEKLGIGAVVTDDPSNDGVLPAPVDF

[9] = target: T3, Protein disulfide-isomerase (Homo sapiens, UniProt P07237); assay: inhibition of PDI-driven insulin aggregation – biochemical, turbidity, absorbance, cherry-picked samples, dose response (AID 602350); type: functional
T3 sequence (P07237 whole entry): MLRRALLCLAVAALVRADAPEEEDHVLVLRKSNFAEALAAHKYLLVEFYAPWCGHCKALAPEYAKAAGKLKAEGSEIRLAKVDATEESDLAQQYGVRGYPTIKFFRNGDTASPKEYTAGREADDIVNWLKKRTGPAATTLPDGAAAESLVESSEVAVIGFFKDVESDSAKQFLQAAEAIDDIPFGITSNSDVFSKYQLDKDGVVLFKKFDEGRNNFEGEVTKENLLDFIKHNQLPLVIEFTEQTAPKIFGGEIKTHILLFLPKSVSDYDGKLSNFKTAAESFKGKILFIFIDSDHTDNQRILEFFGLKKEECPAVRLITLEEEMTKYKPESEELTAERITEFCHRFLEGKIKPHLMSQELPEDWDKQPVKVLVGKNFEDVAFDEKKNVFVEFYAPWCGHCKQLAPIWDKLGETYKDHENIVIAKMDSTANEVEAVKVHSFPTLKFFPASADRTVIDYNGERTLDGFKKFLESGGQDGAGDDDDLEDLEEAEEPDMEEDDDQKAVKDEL

[10] = target: Protein disulfide-isomerase A6 (Homo sapiens, UniProt Q15084); assay: Secondary Assay for Selectivity of PDI Inhibitors (against ERp5) Measured in Biochemical System Using Plate Reader - 2137-04_Inhibitor_Dose_DryPowder_Activity_Set3.
Sequence of Protein disulfide-isomerase A6 (Q15084 whole entry): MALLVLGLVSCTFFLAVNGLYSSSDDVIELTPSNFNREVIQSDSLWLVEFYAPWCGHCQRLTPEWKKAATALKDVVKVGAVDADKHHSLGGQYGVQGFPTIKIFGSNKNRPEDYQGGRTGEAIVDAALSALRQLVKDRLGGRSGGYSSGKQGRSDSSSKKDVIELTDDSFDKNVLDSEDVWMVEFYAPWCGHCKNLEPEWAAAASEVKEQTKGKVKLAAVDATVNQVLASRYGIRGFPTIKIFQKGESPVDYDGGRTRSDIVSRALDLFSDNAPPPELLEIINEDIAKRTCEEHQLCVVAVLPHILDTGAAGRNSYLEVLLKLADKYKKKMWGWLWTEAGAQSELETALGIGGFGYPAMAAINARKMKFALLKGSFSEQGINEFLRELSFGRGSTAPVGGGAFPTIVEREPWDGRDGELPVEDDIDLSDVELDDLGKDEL

[11] = loss of viability in embryonic kidney cells – cell-based, HEK293T, ATP luminescence, dry powder, cytotoxicity control, dose response (AID 652119); type: functional; details: HEK293
[12] = target: T3, Protein disulfide-isomerase; assay: inhibition of PDI-mediated insulin reduction – biochemical, turbidity, dry powder samples, set 2, confirmation (AID 652146)
[13] = target: DNA dC->dU-editing enzyme APOBEC-3G (Homo sapiens, UniProt Q9HC16); assay: inhibition of APOBEC3G ssDNA deamination – biochemical, fluorescence, single-stranded DNA substrate, SAR follow-up (AID 602136); type: functional; details: read-out: IC50_Mean
[14] = target: DNA dC->dU-editing enzyme APOBEC-3A (Homo sapiens, UniProt P31941); assay: SAR analysis of small molecule inhibitors of APOBEC3A DNA Deaminase via a fluorescence-based single-stranded DNA deaminase assay.; type: functional; details: read-out: IC50_Mean
Sequence of DNA dC->dU-editing enzyme APOBEC-3A (P31941 whole entry): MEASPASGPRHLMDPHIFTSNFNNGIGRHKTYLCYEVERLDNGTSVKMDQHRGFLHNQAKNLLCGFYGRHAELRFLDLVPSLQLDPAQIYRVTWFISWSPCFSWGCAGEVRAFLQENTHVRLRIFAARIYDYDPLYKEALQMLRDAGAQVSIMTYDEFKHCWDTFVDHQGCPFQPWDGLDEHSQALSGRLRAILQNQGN

[15] = THP-1 cell cytotoxicity, dose response, cytotoxicity control for non-replicating M. tuberculosis project (AID 489025); type: functional
[16] = Vero E6 cell cytotoxicity, dose response, cytotoxicity control for non-replicating M. tuberculosis project, secondary assay (AID 492998); type: functional, VeroE6; details: Vero C1008
cells = type: functional
CHO = CHO cell viability loss, potency – luminescence, cytotoxicity control for TLR9-MyD88 binding inhibitor project, dose response (AID 588339); type: functional, cell-based, hamster; details: Cricetulus griseus;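 also: CHO cells stably coexpressing TLR9 and MyD88 fusions from primary screen; compound exposure lasted 48 hours before viability readout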
Beta Lactamase = Beta Lactamase (Pseudomonas aeruginosa, UniProt Q932Y6); assay: BLA reporter interference, concentration series – BLA reporter cells, FRET fluorescence, artefact control for TLR9-MyD88 binding inhibitor project, dose response (AID 588341); type: cell-based;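 also: cell based assay in CHO-K1 cells stably expressing beta-lactamase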
Sequence of Beta Lactamase (Q932Y6 whole entry): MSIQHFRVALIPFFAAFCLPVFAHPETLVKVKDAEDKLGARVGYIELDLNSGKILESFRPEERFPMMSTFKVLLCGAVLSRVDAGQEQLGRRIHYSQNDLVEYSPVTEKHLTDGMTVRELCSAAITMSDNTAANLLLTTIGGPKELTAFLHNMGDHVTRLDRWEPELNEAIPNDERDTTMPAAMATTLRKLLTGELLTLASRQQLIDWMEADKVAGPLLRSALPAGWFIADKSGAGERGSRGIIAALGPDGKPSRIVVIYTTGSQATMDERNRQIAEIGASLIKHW

Sequence of ALK tyrosine kinase receptor (Q9UM73 whole entry): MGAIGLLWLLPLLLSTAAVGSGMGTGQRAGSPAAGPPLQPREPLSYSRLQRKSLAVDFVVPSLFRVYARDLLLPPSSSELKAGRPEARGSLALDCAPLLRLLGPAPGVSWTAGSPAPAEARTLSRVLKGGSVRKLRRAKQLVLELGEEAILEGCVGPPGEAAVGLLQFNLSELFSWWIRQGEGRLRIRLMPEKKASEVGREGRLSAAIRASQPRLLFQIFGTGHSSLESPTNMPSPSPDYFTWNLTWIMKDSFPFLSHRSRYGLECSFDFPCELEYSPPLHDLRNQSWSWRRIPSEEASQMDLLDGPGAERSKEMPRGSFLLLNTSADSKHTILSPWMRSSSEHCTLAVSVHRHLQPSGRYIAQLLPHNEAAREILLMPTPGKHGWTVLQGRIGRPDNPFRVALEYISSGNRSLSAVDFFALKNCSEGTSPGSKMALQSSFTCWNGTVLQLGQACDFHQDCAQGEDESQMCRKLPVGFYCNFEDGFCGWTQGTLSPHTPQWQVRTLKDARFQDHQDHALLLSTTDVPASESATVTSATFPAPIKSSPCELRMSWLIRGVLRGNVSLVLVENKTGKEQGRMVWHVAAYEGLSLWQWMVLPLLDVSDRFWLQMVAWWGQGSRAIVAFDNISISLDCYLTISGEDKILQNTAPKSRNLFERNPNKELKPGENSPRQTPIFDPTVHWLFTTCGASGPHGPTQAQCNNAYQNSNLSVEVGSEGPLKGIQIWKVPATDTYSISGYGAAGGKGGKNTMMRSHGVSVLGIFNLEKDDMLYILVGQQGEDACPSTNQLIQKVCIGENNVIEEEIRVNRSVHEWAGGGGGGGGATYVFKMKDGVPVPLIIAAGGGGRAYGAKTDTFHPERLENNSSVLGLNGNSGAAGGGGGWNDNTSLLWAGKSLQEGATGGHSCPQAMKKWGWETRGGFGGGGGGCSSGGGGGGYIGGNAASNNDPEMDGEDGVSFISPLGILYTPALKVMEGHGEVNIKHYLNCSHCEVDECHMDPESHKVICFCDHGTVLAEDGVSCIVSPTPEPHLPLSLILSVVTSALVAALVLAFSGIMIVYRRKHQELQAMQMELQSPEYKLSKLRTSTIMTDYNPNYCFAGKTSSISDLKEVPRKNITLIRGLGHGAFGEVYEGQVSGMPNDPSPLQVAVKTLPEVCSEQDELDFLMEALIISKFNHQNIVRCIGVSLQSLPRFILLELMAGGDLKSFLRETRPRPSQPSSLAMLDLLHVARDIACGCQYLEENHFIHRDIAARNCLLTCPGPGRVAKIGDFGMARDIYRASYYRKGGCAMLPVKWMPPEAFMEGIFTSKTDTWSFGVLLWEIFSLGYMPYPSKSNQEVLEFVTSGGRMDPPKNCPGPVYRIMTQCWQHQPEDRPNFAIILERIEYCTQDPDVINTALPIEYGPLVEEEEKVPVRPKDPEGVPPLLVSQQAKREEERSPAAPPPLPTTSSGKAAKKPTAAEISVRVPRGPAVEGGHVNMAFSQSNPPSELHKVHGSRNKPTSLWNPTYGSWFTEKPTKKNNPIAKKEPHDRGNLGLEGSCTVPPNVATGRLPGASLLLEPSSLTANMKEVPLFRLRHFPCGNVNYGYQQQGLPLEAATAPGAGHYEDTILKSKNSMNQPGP
Sequence of Aurora kinase A (O14965 whole entry): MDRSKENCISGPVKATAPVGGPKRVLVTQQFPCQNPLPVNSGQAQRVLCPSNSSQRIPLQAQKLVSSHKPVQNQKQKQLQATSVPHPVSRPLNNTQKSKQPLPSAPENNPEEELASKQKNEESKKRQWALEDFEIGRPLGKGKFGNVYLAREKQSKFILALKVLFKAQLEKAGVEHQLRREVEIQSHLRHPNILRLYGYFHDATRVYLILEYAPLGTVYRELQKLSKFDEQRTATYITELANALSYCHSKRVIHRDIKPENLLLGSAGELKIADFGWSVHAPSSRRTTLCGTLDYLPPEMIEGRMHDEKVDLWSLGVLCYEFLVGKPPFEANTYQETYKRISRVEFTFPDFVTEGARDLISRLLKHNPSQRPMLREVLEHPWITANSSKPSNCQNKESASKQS

Cc1cc(N2CCOCC2)cc2[nH]c(-c3c(NCCc4ccccc4)cc[nH]c3=O)nc12
Ki [1]: 0.126 µM (active)
Ki (Aurora kinase A): 0.794 µM (active)
Ki (Focal adhesion kinase 1): > 1.58 µM (inactive)
Ki (Aurora kinase B): 0.1 µM (active)

COc1ccc(CN(C(=O)c2nsc(Cl)c2Cl)C(C(=O)NC2CCCC2)c2ccc(C)cc2)cc1 (stereo not drawn)
AC50 [2]: 27.6 µM (active)
IC50 [3]: > 69.5 µM (inactive)
IC50 [4]: > 7.72 µM (active)

CCOC(=O)C1(CCOc2ccccc2)CCN(Cc2ccc(O)c(Cl)c2)CC1
EC50 [5]: > 120 µM (not active)
EC50 [6]: > 120 µM (not active)
EC50 [7]: > 120 µM (not active)
AC50 [8]: 99.6 µM (active)
EC50 (Protein RecA): > 380 µM (inactive)
AC50 [9]: 0.599 µM (active)
AC50 [10]: 30 µM (inactive)
AC50 [11]: > 52 µM (inactive)
AC50 [12]: 2 µM (active)

COc1ccc(-c2nnc(SCc3coc(-c4cccs4)n3)[nH]2)cc1
IC50 [13]: > 99 µM (inactive)
IC50 [14]: > 99 µM (inactive)

CC(=O)Oc1ccc(N2C(=O)c3cccc4c([N+](=O)[O-])ccc(c34)C2=O)cc1
CC50 [15]: 6.74 µM (active)
CC50 [16]: > 20 µM (active)
IC50 (cells): 9.16 µM (active)
IC50 (CHO): 6.34 µM (active)
IC50 (Beta Lactamase): 4.06 µM (active)
